The values that follow come from the NIST ThermoML archive (doi:10.1021/je7004038).

The conditions of the series: Crystal; visual observation.

± gives the expanded uncertainty stated by the source.

Consider `O=[N+]([O-])/N=C1\NCCN1Cc1ccc(Cl)nc1` [imidacloprid], for which the Normal melting temperature was 144.00 ± 0.68 °C.
